Data reported in the NIST ThermoML archive (doi:10.1016/j.fluid.2013.06.021).

Assay: xn = mol fraction of the nth substance listed
Settings: 101 kPa, Liquid; for speed of sound: Sing-around technique in a fixed-path interferometer; for mass density: Vibrating tube method; for viscosity: Capillary tube (Ostwald / Ubbelohde) method

CCCCOCCO [2-butoxyethan-1-ol] + CCC(C)O
Settings	mass density [kg/m3]	speed of sound [m/s]	viscosity [mPa·s]
293.15 K, x1 = 0.0517	813.24	1236.5	–
293.15 K, x1 = 0.1011	819.25	1242	–
293.15 K, x1 = 0.152	825.25	1247.7	–
293.15 K, x1 = 0.2027	831.03	1253.1	–
293.15 K, x1 = 0.2541	836.67	1258.4	–
293.15 K, x1 = 0.3092	842.49	1264	–
293.15 K, x1 = 0.4012	851.78	1272.9	–
293.15 K, x1 = 0.5011	861.21	1282.2	–
293.15 K, x1 = 0.6065	870.53	1291.4	–
293.15 K, x1 = 0.7054	878.73	1299.8	–
293.15 K, x1 = 0.806	886.59	1307.9	–
293.15 K, x1 = 0.8558	890.31	1311.8	–
293.15 K, x1 = 0.8999	893.54	1315.3	–
293.15 K, x1 = 0.9516	897.19	1319.3	–
298.15 K, x1 = 0.0517	809.099	1218.9	2.932
298.15 K, x1 = 0.1011	815.491	1224.3	2.809
298.15 K, x1 = 0.152	821.091	1229.9	2.713
298.15 K, x1 = 0.2027	826.863	1235.3	2.66
298.15 K, x1 = 0.2541	832.498	1240.7	2.607
298.15 K, x1 = 0.3092	838.314	1246.4	2.586
298.15 K, x1 = 0.4012	847.585	1255.4	2.563
298.15 K, x1 = 0.5011	857.012	1264.8	2.583
298.15 K, x1 = 0.6065	866.34	1274.2	–
298.15 K, x1 = 0.6066	–	–	2.598
298.15 K, x1 = 0.7054	874.537	1282.5	2.653
298.15 K, x1 = 0.806	882.398	1290.7	2.711
298.15 K, x1 = 0.8558	886.109	1294.6	2.747
298.15 K, x1 = 0.8999	889.334	1298.1	2.796
298.15 K, x1 = 0.9516	892.99	1302.2	2.824
303.15 K, x1 = 0.0517	804.88	1202	2.441
303.15 K, x1 = 0.1011	810.88	1207	2.357
303.15 K, x1 = 0.152	816.86	1212.3	2.319
303.15 K, x1 = 0.2027	822.62	1217.7	2.283
303.15 K, x1 = 0.2541	828.26	1223	2.249
303.15 K, x1 = 0.3092	834.08	1228.6	2.22
303.15 K, x1 = 0.4012	843.34	1237.7	2.224
303.15 K, x1 = 0.5011	852.78	1247.4	2.283
303.15 K, x1 = 0.6065	862.11	1257.1	–
303.15 K, x1 = 0.6066	–	–	2.342
303.15 K, x1 = 0.7054	870.3	1265.5	2.419
303.15 K, x1 = 0.806	878.16	1273.8	2.488
303.15 K, x1 = 0.8558	881.88	1277.7	2.53
303.15 K, x1 = 0.8999	885.1	1281.2	2.562
303.15 K, x1 = 0.9516	888.76	1285.1	2.606
308.15 K, x1 = 0.0517	800.58	1183	2.081
308.15 K, x1 = 0.1011	806.58	1188.7	2.031
308.15 K, x1 = 0.152	812.55	1194.5	1.994
308.15 K, x1 = 0.2027	818.33	1200	1.97
308.15 K, x1 = 0.2541	823.96	1205.6	1.944
308.15 K, x1 = 0.3092	829.79	1211.4	1.935
308.15 K, x1 = 0.4012	839.07	1220.6	1.935
308.15 K, x1 = 0.5011	848.49	1230.3	1.964
308.15 K, x1 = 0.6065	857.81	1240	–
308.15 K, x1 = 0.6066	–	–	1.998
308.15 K, x1 = 0.7054	866.02	1248.6	2.064
308.15 K, x1 = 0.806	873.9	1256.7	2.112
308.15 K, x1 = 0.8558	877.63	1260.8	2.144
308.15 K, x1 = 0.8999	880.86	1264.2	2.172
308.15 K, x1 = 0.9516	884.53	1268.2	2.196
313.15 K, x1 = 0.0517	796.19	1164.9	–
313.15 K, x1 = 0.1011	802.19	1170.6	–
313.15 K, x1 = 0.152	808.15	1176.6	–
313.15 K, x1 = 0.2027	813.93	1182.3	–
313.15 K, x1 = 0.2541	819.59	1188	–
313.15 K, x1 = 0.3092	825.43	1193.9	–
313.15 K, x1 = 0.4012	834.71	1203.5	–
313.15 K, x1 = 0.5011	844.14	1213.3	–
313.15 K, x1 = 0.6065	853.46	1223.1	–
313.15 K, x1 = 0.7054	861.68	1231.8	–
313.15 K, x1 = 0.806	869.59	1240.2	–
313.15 K, x1 = 0.8558	873.33	1244.1	–
313.15 K, x1 = 0.8999	876.56	1247.6	–
313.15 K, x1 = 0.9516	880.24	1251.6	–
